Measurements: ChEMBL document CHEMBL1141103, “5-Cyanopyrimidine derivatives as a novel class of potent, selective, and orally active inhibitors of p38alpha MAP kinase” (J Med Chem, 2005)

How the values were obtained:
PBMC = assay: Concentration required to inhibit LPS-induced TNFalpha production in human peripheral blood mononuclear cells; n=3; type: functional, cell-based
[1] = Metabolic rate as a measure of compound stability in human liver microsomes; type: ADME, Microsome
[2] = In vitro permeability of compound into Caco-2 cells; type: ADME, cell-based; conditions: human, read-out: Permeability
[3] = Clearance of compound in mice after intravenous administration; type: ADME, organism-based; conditions: mouse, in vivo
[4] = Half-life of compound evaluated in mice after intravenous administration; type: ADME, organism-based; conditions: mouse, in vivo
[5] = Metabolic rate as a measure of compound stability in rat liver microsomes; type: ADME, Microsome
[6] = Oral bioavailability of compound after administration of a solution dose in PEG400; type: ADME, organism-based; conditions: eutheria, in vivo
PHA-Ly = assay: In vitro cytotoxic effect of compound (30 uM) on PHA blast cells compared to control after 24 hours of treatment; type: functional, Homo sapiens
MAP kinase p38 = MAP kinase p38 (Homo sapiens, UniProt O15264+Q15759+Q16539+P53778); assay: Binding affinity for human p38 MAP kinase expressed in Escherichia coli using [gamma-33P]ATP; n=4
[7] = target: Tyrosine-protein kinase Lck (Homo sapiens, UniProt P06239); assay: Inhibitory concentration against Lck
[8] = target: Dual specificity mitogen-activated protein kinase kinase 1 (Homo sapiens, UniProt Q02750); assay: Inhibitory concentration against MEK
[9] = target: Cyclin-dependent kinase 2 (Homo sapiens, UniProt P24941); assay: Inhibitory concentration against CDK2
[10] = target: Mitogen-activated protein kinase 12 (Homo sapiens, UniProt P53778); assay: Inhibitory concentration against p38 gamma
[11] = target: Mitogen-activated protein kinase 14 (Homo sapiens, UniProt Q16539); assay: Inhibitory concentration against p38 alpha
[12] = target: Fibroblast growth factor receptor (Homo sapiens, UniProt P22607+P11362+P22455+P21802); assay: Inhibitory concentration against FGF receptor; type: protein assay
[13] = target: Glycogen synthase kinase-3 (Homo sapiens, UniProt P49840+P49841); assay: Inhibitory concentration against GSK-3; type: protein assay
[14] = target: Inhibitor of NF-kappa-B kinase (IKK) (Homo sapiens, UniProt O14920+O15111+Q9Y6K9); assay: Inhibitory concentration against IKK; type: protein-complex assay
[15] = target: cAMP-dependent protein kinase (PKA) (Homo sapiens, UniProt P22694+P17612+P22612); assay: Inhibitory concentration against PKA; type: protein assay
[16] = target: Mitogen-activated protein kinase 1 (Homo sapiens, UniProt P28482); assay: Inhibitory concentration against ERK
[17] = target: Mitogen-activated protein kinase 13 (Homo sapiens, UniProt O15264); assay: Inhibitory concentration against p38 delta
[18] = target: Tyrosine-protein kinase SYK (Homo sapiens, UniProt P43405); assay: Inhibitory concentration against Syk
[19] = target: RAF proto-oncogene serine/threonine-protein kinase (Homo sapiens, UniProt P04049); assay: Inhibitory concentration against Raf
[20] = target: Serine/threonine-protein kinase AKT (Homo sapiens, UniProt P31751+Q9Y243+P31749); assay: Inhibitory concentration against Akt; type: protein assay
[21] = target: MAP kinase-activated protein kinase 2 (Homo sapiens, UniProt P49137); assay: Inhibitory concentration against MK2
[22] = target: Tyrosine-protein kinase JAK3 (Homo sapiens, UniProt P52333); assay: Inhibitory concentration against JAK3
[23] = target: Tyrosine-protein kinase ITK/TSK (Homo sapiens, UniProt Q08881); assay: Inhibitory concentration against Itk
[24] = target: Mitogen-activated protein kinase 11 (Homo sapiens, UniProt Q15759); assay: Inhibitory concentration against p38 beta
Protein kinase C (PKC) = assay: Inhibitory concentration against PKC; type: protein assay
[25] = target: Vascular endothelial growth factor receptor 2 (Homo sapiens, UniProt P35968); assay: Inhibitory concentration against KDR
[26] = target: Insulin-like growth factor 1 receptor (Homo sapiens, UniProt P08069); assay: Inhibitory concentration against IGF-IR
[27] = target: Hepatocyte growth factor receptor (Homo sapiens, UniProt P08581); assay: Inhibitory concentration against Met
[28] = target: Receptor tyrosine-protein kinase erbB-2 (Homo sapiens, UniProt P04626); assay: Inhibitory concentration against HER2 (ErbB2)
Chain of Receptor tyrosine-protein kinase erbB-2 (P04626 whole entry): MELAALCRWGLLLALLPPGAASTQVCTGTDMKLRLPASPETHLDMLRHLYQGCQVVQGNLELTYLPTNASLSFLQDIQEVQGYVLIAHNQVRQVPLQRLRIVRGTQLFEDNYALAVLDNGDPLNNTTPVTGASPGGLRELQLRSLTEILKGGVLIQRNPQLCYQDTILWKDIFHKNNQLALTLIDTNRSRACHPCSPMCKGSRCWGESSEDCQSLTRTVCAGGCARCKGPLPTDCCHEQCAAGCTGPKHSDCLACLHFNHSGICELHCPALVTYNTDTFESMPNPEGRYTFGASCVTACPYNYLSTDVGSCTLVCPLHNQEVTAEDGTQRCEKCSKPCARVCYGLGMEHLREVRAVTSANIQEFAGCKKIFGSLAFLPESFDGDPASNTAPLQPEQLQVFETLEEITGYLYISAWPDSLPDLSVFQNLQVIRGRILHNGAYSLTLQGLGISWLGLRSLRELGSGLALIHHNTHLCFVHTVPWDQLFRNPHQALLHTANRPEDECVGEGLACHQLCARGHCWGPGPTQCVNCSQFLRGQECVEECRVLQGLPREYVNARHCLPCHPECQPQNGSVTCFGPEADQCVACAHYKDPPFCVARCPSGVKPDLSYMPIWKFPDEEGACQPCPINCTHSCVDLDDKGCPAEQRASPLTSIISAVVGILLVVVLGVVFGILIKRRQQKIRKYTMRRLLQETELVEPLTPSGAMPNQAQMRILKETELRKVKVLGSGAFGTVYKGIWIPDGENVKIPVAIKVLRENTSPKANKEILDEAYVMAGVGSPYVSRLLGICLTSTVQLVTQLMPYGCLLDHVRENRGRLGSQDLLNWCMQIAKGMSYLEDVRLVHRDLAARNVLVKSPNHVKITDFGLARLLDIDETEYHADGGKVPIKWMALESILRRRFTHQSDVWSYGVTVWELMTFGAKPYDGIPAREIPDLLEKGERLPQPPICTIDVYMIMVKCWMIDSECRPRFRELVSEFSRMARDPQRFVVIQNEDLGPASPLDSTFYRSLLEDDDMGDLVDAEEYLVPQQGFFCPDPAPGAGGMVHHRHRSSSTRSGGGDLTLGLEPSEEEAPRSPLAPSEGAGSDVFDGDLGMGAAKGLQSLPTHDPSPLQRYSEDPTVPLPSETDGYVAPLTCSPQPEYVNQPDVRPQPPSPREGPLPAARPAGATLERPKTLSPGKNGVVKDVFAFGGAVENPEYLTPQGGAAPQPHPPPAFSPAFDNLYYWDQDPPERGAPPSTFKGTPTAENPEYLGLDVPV

Chain of Tyrosine-protein kinase Lck (P06239 whole entry): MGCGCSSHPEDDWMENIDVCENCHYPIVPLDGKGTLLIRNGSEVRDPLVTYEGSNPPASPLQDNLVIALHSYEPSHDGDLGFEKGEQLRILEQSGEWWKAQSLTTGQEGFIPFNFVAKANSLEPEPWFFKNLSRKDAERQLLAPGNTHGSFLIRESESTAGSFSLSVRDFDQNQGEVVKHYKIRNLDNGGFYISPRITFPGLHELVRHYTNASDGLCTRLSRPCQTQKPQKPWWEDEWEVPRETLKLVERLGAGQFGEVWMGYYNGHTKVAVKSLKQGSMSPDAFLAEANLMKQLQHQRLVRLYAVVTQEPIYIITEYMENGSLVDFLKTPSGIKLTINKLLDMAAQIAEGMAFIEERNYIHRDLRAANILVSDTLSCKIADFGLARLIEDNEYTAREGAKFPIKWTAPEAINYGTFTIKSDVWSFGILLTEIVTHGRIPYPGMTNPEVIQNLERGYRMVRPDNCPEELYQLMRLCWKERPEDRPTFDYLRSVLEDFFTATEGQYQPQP
Chain of RAF proto-oncogene serine/threonine-protein kinase (P04049 whole entry): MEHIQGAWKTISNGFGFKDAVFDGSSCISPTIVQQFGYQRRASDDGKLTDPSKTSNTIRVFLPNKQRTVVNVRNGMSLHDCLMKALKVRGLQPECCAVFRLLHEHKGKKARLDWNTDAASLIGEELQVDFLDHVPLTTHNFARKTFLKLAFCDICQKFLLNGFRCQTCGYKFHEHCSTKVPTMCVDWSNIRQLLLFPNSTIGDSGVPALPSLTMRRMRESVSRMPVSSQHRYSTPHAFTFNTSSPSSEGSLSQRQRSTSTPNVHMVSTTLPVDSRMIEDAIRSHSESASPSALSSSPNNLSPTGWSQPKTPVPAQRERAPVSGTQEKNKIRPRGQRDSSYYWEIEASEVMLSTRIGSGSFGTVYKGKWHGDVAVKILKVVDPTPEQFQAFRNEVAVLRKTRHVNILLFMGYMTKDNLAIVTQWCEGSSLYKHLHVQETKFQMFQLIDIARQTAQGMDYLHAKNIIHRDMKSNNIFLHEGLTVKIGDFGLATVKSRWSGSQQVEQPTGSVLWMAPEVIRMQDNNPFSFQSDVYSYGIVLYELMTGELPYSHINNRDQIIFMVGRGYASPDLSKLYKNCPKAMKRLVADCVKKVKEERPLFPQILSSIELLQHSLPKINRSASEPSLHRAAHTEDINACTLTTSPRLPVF
Chain of Mitogen-activated protein kinase 14 (Q16539 whole entry): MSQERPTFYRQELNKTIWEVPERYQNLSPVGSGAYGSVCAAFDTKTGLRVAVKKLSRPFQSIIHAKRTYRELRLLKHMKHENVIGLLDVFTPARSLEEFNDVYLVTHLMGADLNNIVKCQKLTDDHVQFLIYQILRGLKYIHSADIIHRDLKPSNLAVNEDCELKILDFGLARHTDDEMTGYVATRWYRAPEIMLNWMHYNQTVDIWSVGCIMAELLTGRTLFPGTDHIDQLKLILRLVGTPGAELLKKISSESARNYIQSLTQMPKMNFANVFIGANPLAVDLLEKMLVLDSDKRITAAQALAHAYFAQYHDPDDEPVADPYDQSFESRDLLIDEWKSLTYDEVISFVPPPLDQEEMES
Chain of Tyrosine-protein kinase JAK3 (P52333 whole entry): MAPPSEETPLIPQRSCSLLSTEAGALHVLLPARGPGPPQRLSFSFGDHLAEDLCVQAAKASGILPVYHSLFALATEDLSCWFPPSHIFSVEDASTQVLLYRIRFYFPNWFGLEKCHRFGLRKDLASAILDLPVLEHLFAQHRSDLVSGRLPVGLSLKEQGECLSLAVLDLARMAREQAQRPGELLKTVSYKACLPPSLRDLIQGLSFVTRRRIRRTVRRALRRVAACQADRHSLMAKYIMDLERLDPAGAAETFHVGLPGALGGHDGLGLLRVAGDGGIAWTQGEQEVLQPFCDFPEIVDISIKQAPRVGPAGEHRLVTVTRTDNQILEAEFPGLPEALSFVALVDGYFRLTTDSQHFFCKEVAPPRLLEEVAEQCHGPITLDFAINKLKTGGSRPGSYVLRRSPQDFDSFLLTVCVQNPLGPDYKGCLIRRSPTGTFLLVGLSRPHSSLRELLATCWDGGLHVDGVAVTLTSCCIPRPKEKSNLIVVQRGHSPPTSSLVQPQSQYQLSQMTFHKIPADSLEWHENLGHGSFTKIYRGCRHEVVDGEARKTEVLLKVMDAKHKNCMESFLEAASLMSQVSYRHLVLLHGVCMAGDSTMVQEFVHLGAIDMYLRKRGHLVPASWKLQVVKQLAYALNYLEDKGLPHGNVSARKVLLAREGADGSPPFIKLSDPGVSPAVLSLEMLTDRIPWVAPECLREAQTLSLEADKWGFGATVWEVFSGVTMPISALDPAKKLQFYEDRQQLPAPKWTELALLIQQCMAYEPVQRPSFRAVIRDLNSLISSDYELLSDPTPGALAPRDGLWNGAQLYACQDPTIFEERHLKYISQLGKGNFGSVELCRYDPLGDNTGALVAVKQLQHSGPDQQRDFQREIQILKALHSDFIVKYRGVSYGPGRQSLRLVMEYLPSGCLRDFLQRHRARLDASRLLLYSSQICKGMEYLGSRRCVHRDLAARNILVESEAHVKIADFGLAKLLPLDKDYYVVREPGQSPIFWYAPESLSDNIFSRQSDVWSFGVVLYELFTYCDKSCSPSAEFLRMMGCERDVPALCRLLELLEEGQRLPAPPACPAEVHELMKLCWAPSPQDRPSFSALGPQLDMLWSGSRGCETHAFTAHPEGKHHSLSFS
Chain of Mitogen-activated protein kinase 1 (P28482 whole entry): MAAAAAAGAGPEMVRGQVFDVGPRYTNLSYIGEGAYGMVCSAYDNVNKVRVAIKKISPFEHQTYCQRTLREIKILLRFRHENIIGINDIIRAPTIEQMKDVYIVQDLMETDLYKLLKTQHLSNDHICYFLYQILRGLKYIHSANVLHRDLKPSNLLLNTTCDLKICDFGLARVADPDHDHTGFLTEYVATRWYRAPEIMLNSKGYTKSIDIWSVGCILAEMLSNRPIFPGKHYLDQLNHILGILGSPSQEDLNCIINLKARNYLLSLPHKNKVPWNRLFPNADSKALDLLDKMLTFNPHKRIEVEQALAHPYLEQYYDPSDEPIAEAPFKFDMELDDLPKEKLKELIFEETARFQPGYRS
Chain of Mitogen-activated protein kinase 11 (Q15759 whole entry): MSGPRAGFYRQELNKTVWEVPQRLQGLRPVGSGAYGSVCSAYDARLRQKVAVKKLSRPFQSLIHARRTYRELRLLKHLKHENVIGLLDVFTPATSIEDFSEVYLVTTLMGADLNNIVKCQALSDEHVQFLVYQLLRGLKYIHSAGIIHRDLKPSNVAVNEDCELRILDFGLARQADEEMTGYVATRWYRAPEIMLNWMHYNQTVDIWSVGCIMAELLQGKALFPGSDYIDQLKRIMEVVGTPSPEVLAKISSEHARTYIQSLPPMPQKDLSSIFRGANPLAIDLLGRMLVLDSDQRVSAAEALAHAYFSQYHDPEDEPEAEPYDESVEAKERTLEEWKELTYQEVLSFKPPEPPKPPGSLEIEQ
Chain of MAP kinase-activated protein kinase 2 (P49137 whole entry): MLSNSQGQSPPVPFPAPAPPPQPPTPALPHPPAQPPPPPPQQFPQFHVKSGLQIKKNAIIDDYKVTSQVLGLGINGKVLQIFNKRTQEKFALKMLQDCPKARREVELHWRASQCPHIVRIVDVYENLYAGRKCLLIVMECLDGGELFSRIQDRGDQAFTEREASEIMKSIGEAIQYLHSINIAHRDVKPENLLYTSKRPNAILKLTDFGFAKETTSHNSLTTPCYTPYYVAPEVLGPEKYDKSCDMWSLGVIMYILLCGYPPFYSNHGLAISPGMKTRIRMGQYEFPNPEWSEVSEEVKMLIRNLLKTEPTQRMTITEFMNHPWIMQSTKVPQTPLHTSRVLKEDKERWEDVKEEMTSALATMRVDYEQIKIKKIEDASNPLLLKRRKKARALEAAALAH

CNc1nc(Nc2cc(C(=O)NOC)ccc2C)c(C#N)c(N(C)CC(C)(C)C)n1
IC50 (PBMC): 64 µM

CONC(=O)c1ccc(C)c(Nc2ncnc(N(C)CC(C)(C)C)c2C#N)c1
IC50 (PBMC): 42 µM

CCn1nccc1NC(=O)c1ccc(C)c(Nc2ncnc(NC(C)C)c2C#N)c1
IC50 (PBMC): 130 µM

CONC(=O)c1ccc(C)c(Nc2nc(N3CCCN(C)CC3)nc(N(C)CC(C)(C)C)c2C#N)c1
IC50 (PBMC): 0.33 µM

Cc1ccc(C(=O)Nc2ccon2)cc1Nc1nc(N)nc(NC(C)C)c1C#N
IC50 (PBMC): 18 µM

Cc1ccc(C(=O)Nc2ccon2)cc1Nc1nc(N)nc(NC2CCCC2)c1C#N
IC50 (PBMC): 1.5 µM

CNc1ncnc(Nc2cc(C(=O)NOC)ccc2C)c1C#N
IC50 (PBMC): > 250 µM

CCn1nccc1NC(=O)c1ccc(C)c(Nc2ncnc(NC3CCCC3)c2C#N)c1
IC50 (PBMC): 72 µM

CCn1nccc1NC(=O)c1ccc(C)c(Nc2nc(N)nc(NC3CCCC3)c2C#N)c1
IC50 (PBMC): 21 µM

Cc1ccc(C(=O)Nc2ccon2)cc1Nc1ncnc(NC(C)C)c1C#N
IC50 (PBMC): 8.7 µM | Metabolic rate [1]: 0.012 nmol/min*mg of protein | Papp [2]: 23.9 ×10⁻⁶ cm/s | clearance [3]: 28.3 mL/min/kg | half-life [4]: 1.7 h | Metabolic rate [5]: 0.22 nmol/min*mg of protein | bioavailability [6]: 100% | Control (PHA-Ly): 82%

CONC(=O)c1ccc(C)c(Nc2ncnc(NC3CCCC3)c2C#N)c1
IC50 (PBMC): 4.1 µM | Ki (MAP kinase p38): 0.00042 µM

CONC(=O)c1ccc(C)c(Nc2nc(N)nc(N(C)CC(C)(C)C)c2C#N)c1
IC50 (PBMC): 17 µM

CCn1nccc1NC(=O)c1ccc(C)c(Nc2nc(N)nc(NC(C)C)c2C#N)c1
IC50 (PBMC): 67 µM

CONC(=O)c1ccc(C)c(Nc2ncnc(NC(C)C)c2C#N)c1
IC50 (PBMC): 4.6 µM

CCCNc1ncnc(Nc2cc(C(=O)NOC)ccc2C)c1C#N
IC50 (PBMC): 158 µM

Cc1ccc(C(=O)Nc2ccon2)cc1Nc1ncnc(NC2CCCC2)c1C#N
IC50 [7]: > 50 µM | IC50 (PBMC): 3.5 µM | IC50 [8]: > 25 µM | IC50 [9]: > 100 µM | IC50 [10]: > 30 µM | IC50 [11]: 0.0041 µM | IC50 [12]: > 50 µM | IC50 [13]: > 50 µM | IC50 [14]: > 10 µM | IC50 [15]: > 50 µM | IC50 [16]: > 5 µM | IC50 [17]: > 30 µM | IC50 [18]: > 50 µM | IC50 [19]: > 30 µM | IC50 [20]: > 50 µM | IC50 [21]: > 50 µM | IC50 [22]: > 50 µM | IC50 [23]: > 50 µM | IC50 [24]: < 0.1 µM | IC50 (Protein kinase C (PKC)): > 50 µM | IC50 [25]: > 30 µM | IC50 [26]: > 50 µM | IC50 [27]: > 50 µM | IC50 [28]: > 50 µM
